# What was measured:
# [1] = test system: lambsquarter (Chenopodium album); assay: General postemergence herbicidal activity, CHEAL; assay type: in vivo; conditions: Chenopodium album, post-emergence, 336 h, postemergence spray, visual score after 14 days, 0 = no injury, 100 = complete kill, read-out: Post-emergent Weed Control CHEAL; for pest or weed control at 280 g/ha: 280 g ai/ha; for pest or weed control at 140 g/ha: 140 g ai/ha
# Outline: (§1)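 Test species were grown 7-21 days in potting mix under greenhouse conditions, then treated postemergence by track sprayer delivering 187 L/ha. Rates comprised the high rate and twofold dilutions down to 1/16X. After 14 days with sub-irrigation, damage is scored from 0 (no injury) to 100 (complete kill).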
# [2] = test system: velvetleaf (Abutilon theophrasti); assay: General preemergence herbicidal activity, ABUTH; assay type: in vivo; conditions: applied to soil surface, visual score after 20-22 days, 0 = no injury, 100 = complete kill or no emergence, read-out: Pre-emergent Weed Control ABUTH; for pest or weed control at 140 g/ha: 140 g ai/ha
# Description: (§2) Seeds of the desired test plant species were planted in a soil matrix prepared by mixing a loam soil (43 percent silt, 19 percent clay, and 38 percent sand, with a pH of about 8.1 and an organic matter content of about 1.5 percent) and sand in a 70 to 30 ratio. The soil matrix was contained in plastic pots with a surface area of 127 square centimeters. When required to ensure good germination and healthy plants, a fungicide treatment and/or other chemical or physical treatment was applied. A weighed amount, determined by the highest rate to be tested, of each test compound was placed in a 25 mL glass vial and was dissolved in 6 mL of a 97:3 v/v (volume/volume) mixture of acetone and DMSO to obtain concentrated stock solutions. […] The stock solutions obtained were diluted with 18 mL of a 0.1% v/v aqueous solution of Tween® 20 surfactant to obtain spray solutions containing the highest application rate. Additional application rates were obtained by serial dilution of 12 mL of the high rate solution into a solution containing 3 mL of 97:3 v/v mixture of acetone and DMSO and 9 mL of the 0.1% v/v aqueous solution of Tween® 20 surfactant to obtain 1/2X, 1/4X, 1/8X and 1/16X rates of the high rate. Compound requirements are based upon a 12 mL application volume at a rate of 187 L/ha. Formulated compounds were applied to the soil surface with an overhead Mandel track sprayer equipped with a […] nozzles calibrated to deliver 187 L/ha over an application area of 0.503 square meters at a spray height of 18 inches (43 cm) above the soil surface. Control pots were sprayed in the same manner with the solvent blank. The treated pots and control pots were placed in a greenhouse maintained with an approximate 15 hour photoperiod and temperatures of about 23-29° C. during the day and 22-28° C. during the night. Nutrients and water were added on a regular basis and supplemental lighting was provided with overhead metal halide 1000-Watt lamps as necessary. The water was added by top-irrigation. After 20-22 days, the condition of the test plants that germinated and grew as compared with that of the untreated plants that emerged and grew was determined visually and scored on a scale of 0 to 100 percent where 0 corresponds to no injury and 100 corresponds to complete kill or no emergence.
# [3] = test system: wild poinsettia (Euphorbia heterophylla); assay: General preemergence herbicidal activity, EPHHL; assay type: in vivo; conditions: applied to soil surface, visual score after 20-22 days, 0 = no injury, 100 = complete kill or no emergence, read-out: Pre-emergent Weed Control EPHHL; for pest or weed control at 140 g/ha: 140 g ai/ha
# Description: as §2
# [4] = test system: lambsquarter (Chenopodium album); assay: General preemergence herbicidal activity, CHEAL; assay type: in vivo; conditions: applied to soil surface, visual score after 20-22 days, 0 = no injury, 100 = complete kill or no emergence, read-out: Pre-emergent Weed Control CHEAL; for pest or weed control at 140 g/ha: 140 g ai/ha
# Description: as §2
# [5] = test system: wild poinsettia (Euphorbia heterophylla); assay: General postemergence herbicidal activity, EPHHL; assay type: in vivo; conditions: Euphorbia heterophylla, post-emergence, 336 h, postemergence spray, visual score after 14 days, 0 = no injury, 100 = complete kill, read-out: Post-emergent Weed Control EPHHL; for pest or weed control at 280 g/ha: 280 g ai/ha; for pest or weed control at 140 g/ha: 140 g ai/ha
# Outline: as §1
# rice (Oryza sativa) [6] = assay: General postemergence herbicidal activity, ORYSA; assay type: in vivo; conditions: Oryza sativa, post-emergence, 336 h, postemergence spray, visual score after 14 days, 0 = no injury, 100 = complete kill, read-out: Post-emergent Weed Control ORYSA; for plant injury at 280 g/ha: 280 g ai/ha; for plant injury at 140 g/ha: 140 g ai/ha
# Outline: as §1
# [7] = test system: barnyardgrass (Echinochloa crus-galli); assay: General preemergence herbicidal activity, ECHCG; assay type: in vivo; conditions: applied to soil surface, visual score after 20-22 days, 0 = no injury, 100 = complete kill or no emergence, read-out: Pre-emergent Weed Control ECHCG; for pest or weed control at 140 g/ha: 140 g ai/ha
# Description: as §2
# [8] = test system: barnyardgrass (Echinochloa crus-galli); assay: General postemergence herbicidal activity, ECHCG; assay type: in vivo; conditions: Echinochloa crus-galli, post-emergence, 336 h, postemergence spray, visual score after 14 days, 0 = no injury, 100 = complete kill, read-out: Post-emergent Weed Control ECHCG; for pest or weed control at 280 g/ha: 280 g ai/ha; for pest or weed control at 140 g/ha: 140 g ai/ha
# Outline: as §1
# rice (Oryza sativa) [9] = assay: General preemergence herbicidal activity, ORYSA; assay type: in vivo; conditions: applied to soil surface, visual score after 20-22 days, 0 = no injury, 100 = complete kill or no emergence, read-out: Pre-emergent Weed Control ORYSA; for plant injury at 140 g/ha: 140 g ai/ha
# Description: as §2
# [10] = test system: velvetleaf (Abutilon theophrasti); assay: General postemergence herbicidal activity, ABUTH; assay type: in vivo; conditions: Abutilon theophrasti, post-emergence, 336 h, postemergence spray, visual score after 14 days, 0 = no injury, 100 = complete kill, read-out: Post-emergent Weed Control ABUTH; for pest or weed control at 280 g/ha: 280 g ai/ha; for pest or weed control at 140 g/ha: 140 g ai/ha
# Outline: as §1
Structure (SMILES),melting point [°C],pest or weed control at 280 g/ha [1] [%],pest or weed control at 140 g/ha [2] [%],pest or weed control at 140 g/ha [3] [%],pest or weed control at 140 g/ha [4] [%],pest or weed control at 280 g/ha [5] [%],plant injury at 280 g/ha (rice (Oryza sativa) [6]) [%],pest or weed control at 140 g/ha [7] [%],pest or weed control at 280 g/ha [8] [%],plant injury at 140 g/ha (rice (Oryza sativa) [9]) [%],pest or weed control at 280 g/ha [10] [%],pest or weed control at 140 g/ha [1] [%],pest or weed control at 140 g/ha [5] [%],plant injury at 140 g/ha (rice (Oryza sativa) [6]) [%],pest or weed control at 140 g/ha [8] [%],pest or weed control at 140 g/ha [10] [%],also measured
"COC(=O)c1nc(-c2ccc(Cl)c(OC)c2F)nc(N)c1C [Compound 2, 6-Amino-2-(4-chloro-2-fluoro-3-methoxyphenyl)-5-methylpyrimidine-4-carboxylic acid methyl ester]",168 to 170,100,40,95,80,100,0,0,95,15,95,–,–,–,–,–,–
"C=Cc1c(N)nc(C2CC2)nc1C(=O)OCC [Compound 4, 6-Amino-2-cyclopropyl-5-vinylpyrimidine-4-carboxylic acid ethyl ester]",155 to 157,–,–,–,–,–,–,–,–,–,–,100,100,0,0,100,pest or weed control at 280 g/ha ([2]; 280 g ai/ha): 90%; pest or weed control at 280 g/ha ([3]; 280 g ai/ha): 100%; pest or weed control at 280 g/ha ([4]; 280 g ai/ha): 100%; pest or weed control at 280 g/ha ([7]; 280 g ai/ha): 50%; plant injury at 280 g/ha (rice (Oryza sativa) [9]; 280 g ai/ha): 0%
"C=Cc1c(N)nc(-c2ccc(Cl)cc2F)nc1C(=O)OC [Compound 5, 6-Amino-2-(4-chloro-2-fluorophenyl)-5-vinylpyrimidine-4-carboxylic acid methyl ester]",137 to 139,–,100,90,95,–,–,0,–,10,–,100,100,5,80,100,–

# Now from value to compound, other results behind:
melting point [°C],Structure (SMILES),pest or weed control at 280 g/ha [1] [%],pest or weed control at 140 g/ha [2] [%],pest or weed control at 140 g/ha [3] [%],pest or weed control at 140 g/ha [4] [%],pest or weed control at 280 g/ha [5] [%],plant injury at 280 g/ha (rice (Oryza sativa) [6]) [%],pest or weed control at 140 g/ha [7] [%],pest or weed control at 280 g/ha [8] [%],plant injury at 140 g/ha (rice (Oryza sativa) [9]) [%],pest or weed control at 280 g/ha [10] [%],pest or weed control at 140 g/ha [1] [%],pest or weed control at 140 g/ha [5] [%],plant injury at 140 g/ha (rice (Oryza sativa) [6]) [%],pest or weed control at 140 g/ha [8] [%],pest or weed control at 140 g/ha [10] [%],also measured
144 to 147,"C=Cc1c(N)nc(-c2ccc(Cl)c(C(C)F)c2F)nc1C(=O)OC (stereo not drawn) [Compound 14, 6-amino-2-(4-chloro-2-fluoro-3-(1-fluoroethyl)phenyl)-5-vinylpyrimidine-4-carboxylic acid methyl ester]",–,100,100,100,–,–,95,–,95,–,–,–,–,–,–,pest or weed control at 70 g/ha ([1]; 70 g ai/ha): 100%; pest or weed control at 70 g/ha ([5]; 70 g ai/ha): 100%; plant injury at 70 g/ha (rice (Oryza sativa) [6]; 70 g ai/ha): 10%; pest or weed control at 70 g/ha ([8]; 70 g ai/ha): 100%; pest or weed control at 70 g/ha ([10]; 70 g ai/ha): 100%
118 to 121,"C=Cc1c(N)cc(-c2ccc(Cl)c(OC)c2F)nc1C(=O)OC [Compound 28, 4-Amino-6-(4-chloro-2-fluoro-3-methoxyphenyl)-3-vinylpyridine-2-carboxylic acid methyl ester]",75,95,100,95,90,0,70,75,20,85,–,–,–,–,–,–
201 to 203,"COc1c(Cl)ccc(-c2nc(N)c(C)c(C(=O)O)n2)c1F [Compound 53, 6-amino-2-(4-chloro-2-fluoro-3-methoxyphenyl)-5-methylpyrimidine-4-carboxylic acid]",–,100,100,100,–,–,80,–,0,–,100,100,0,90,90,–

# Source: patent US8658791B2, “2-substituted-6-amino-5-alkyl, alkenyl or alkynyl-4-pyrimidinecarboxylic acids and 6-substituted-4-amino-3-alkyl, alkenyl or alkynyl picolinic acids and their use as herbicides” (Dow AgroSciences, LLC, priority 2007, dated 2014)
